For experiment [1], the system named is NGAL. As to the kind of experiment: Western blot of NGAL protein in SEB-1 sebocytes after retinoid treatment. The class given is cell-based, human. The settings on record: 72 hours, 0.1 nM to 1 μM, maximum with micromolar concentrations. An excerpt:
For Western blotting, mouse monoclonal antibody to lipocalin 2 (NGAL) was obtained from Abeam, Inc., (Cambridge, Mass.). The 24p3R(NGAL receptor) affinity purified antibody, positive (HEK 293 cell lysate) and negative (T47D cell lysate) controls were kindly provided by Dr. Michael Green (University of Massachusetts Medical School). GAPDH (#2118), Cleaved caspase 3 (#9664), β-actin (#4967) and anti-rabbit horseradish peroxidase (HRP) linked secondary antibodies (#7074) were purchased from Cell Signaling Technology (Beverly, Mass.). Secondary Anti-mouse HRP antibody was purchased from Santa Cruz Biotechnology Inc. (Santa Cruz, Calif.).
SEB-1 sebocytes (passages 22-28) were in standard culture medium until 50-75% confluent. Treatments of 13-cis RA (0.1 nM, 1 nM, 10 nM, 0.1 μM, or 1 μM) or ethanol vehicle (0.01% or less) were applied for 48 or 72 hours. In parallel studies, identical concentrations of all-trans retinoic acid (ATRA) were applied for 72 hours. In all experiments, each plate was considered an independent sample and total protein was collected. Blots were incubated with appropriate primary and secondary antibodies followed by densitometry. […] Data was analyzed using a paired t-test and results were considered significant if p<0.05.
Protein expression was verified by western blot at 72 hours of retinoid treatment. […] Blots were analyzed by densitometry and normalized to β-actin. […]
(In general: Immunoblotting shows a protein as a band on a membrane.)

The test system of experiment [2] is sebaceous glands. Description: Histology: sebaceous gland area in patient skin biopsies (H&E, image analysis). The class given is in vivo, human. The settings on record: one week samples, mean±SEM; baseline 0.23±0.09; not significant (p=0.16).
In experiment [3] the test system is sebaceous glands. Description: TUNEL-peroxidase assay on patient skin biopsies. The format is in vivo, human.
Experiment [4] concerns NGAL. Description: NGAL immunohistochemistry on patient skin sections. To be noted: individual patients 1-6 and average, after one week isotretinoin therapy. The class given is in vivo, human. Here is the method:
All sections were counterstained with hematoxylin. […] NC-negative control, consists of a normal human skin incubated with normal mouse IgG1 antibody.

A further experiment relates to LCN2 mRNA. As to the kind of experiment: QPCR of LCN2 mRNA in SEB-1 sebocytes after retinoid treatment. The format is cell-based, human. The settings on record: 48 hours. As to the method:
Applied Biosystems' Assays-on-Demand Taqman Universal PCR Master Mix, primer/probe sets, and ABI's 7900HT Fast Real-Time PCR System with 384-well plate block module were used according to manufacturer's instructions (Applied Biosystems, Foster City, Calif.). Integrity of isolated RNA was verified by agarose gel electrophoresis. cDNA was generated from 1 μg of total RNA, primed with oligo-dT, using the Superscript First-Strand Synthesis System for RT-PCR (Invitrogen, Carlsbad, Calif.). Diluted cDNA from the one week samples were run for the reference gene TATA binding protein (TBP) and genes of interest: lipocalin 2, (LCN2) RARRES1, S100A7, SERPINA3 and PLA2G7. For gene array verification, 8 independent samples of SEB-1 sebocytes treated with 0.1 μM 13-cis RA or vehicle alone for 72 hours were analyzed. Genes of interest included: LCN2, RARRES1, insulin-like growth factor binding protein 3 (IGFBP-3), GATA3, ZBTB16 and potential LCN2 cell surface receptor (SLC22A17). Expression of TBP, GAPDH and LCN2 was analyzed in 6 independent SEB-1 samples for the siRNA knockdown experiments. SEB-1 sebocytes treated with increasing concentrations of ATRA (n=5) were analyzed for the reference gene, TBP, and LCN2. […] Data was analyzed using the Relative Expression Software Tool (REST-XL version 1) software program (64) with efficiency correction and a p-value <0.05 was considered significant. […]

Experiment [5] has as its system NGAL. Description: Immunoblot for NGAL in SEB-1 sebocytes after poly (I:C). The format is cell-based, human. To be noted: SEB-1, 20 μg/mL, 48 hrs.
The subject of the next experiment is SEB-1 sebocytes. As to the kind of experiment: TUNEL assay in SEB-1 sebocytes. The settings on record: 24 hours, 1 ng/mL. The format is cell-based, human.
The next experiment concerns P. acnes bacteria. As to the kind of experiment: P. acnes percent survival after rhNGAL treatment. To be noted: 1-25 μg/mL, 4 hours, percent survival relative to vehicle.

Several values for one entry are separate records, joined by “and”; a condition that tells them apart may be missing. Equal entries are not always repeated.

With `CC1=C(/C=C/C(C)=C/C=C/C(C)=C/C(=O)O)C(C)(C)CCC1` [ATRA, all-trans retinoic acid], in the experiment with NGAL [1], the “NGAL protein expression increase compared to control (maximum)” value came out at 7 fold.
As for `CC1=C(/C=C/C(C)=C/C=C/C(C)=C\C(=O)O)C(C)(C)CCC1` [isotretinoin, 13-cis retinoic acid], the “mean area of sebaceous glands” value in the experiment with sebaceous glands [2] amounted to 0.12±0.02 mm^2. Also, the “increase in the percentage of TUNEL positive cells vs baseline” value with sebaceous glands [3] (one week of therapy compared to baseline) is given as 4 fold. Also, the “percentage of TUNEL positive cells within the sebaceous gland” value in the experiment on sebaceous glands [3] (one week of therapy, mean±SD, n=6 patients, baseline 13.9±6%, p=0.005) is reported as 45.9±11.9%. For the same molecule, in the experiment with NGAL [4], the “1-week (% of sebaceous gland positive for NGAL)” value is 27.1% and 1.1% and 12.1% and 1.0% and 36.7% and 11.3%. The “concentrations that significantly increased LCN2 mRNA levels” value with LCN2 mRNA is reported as no less than 1 nM. Besides, the “increase of LCN2 mRNA levels compared to control” value in the experiment with LCN2 mRNA (micromolar concentrations) is “approximately 6 fold”.
Take “Polyinosinic:polycytidylic acid [Poly (I:C)]”: in the experiment with NGAL [5], the “NGAL expression in total cell lysate” value is given as “increases”.

B1: rhNGAL: purified recombinant human NGAL protein (amino acids 21-198, R&D Systems); in Example 14 rhNGAL produced in E. coli (protein)
chain: QDSTSDLIPAPPLSKVPLQQNFQDNQFQGKWYVVGLAGNAILREDKDPQKMYATIYELKEDKSYNVTSVLFRKKKCDYWIRTFVPGCQPGEFTLGNIKSYPGLTSYLVRVVSTNYNQHAMVFFKKVSQNREYFKITLYGRTKELTSELKENFIRFSKSLGLPENHIVFPVPIDQCIDG
modifications: human
With B1, in the experiment on SEB-1 sebocytes, the “percentage of TUNEL positive cells (maximum)” value is reported as “approximately 35%”. Further, the “effect on P. acnes bacteria (FIG. 11)” value in the experiment on P. acnes bacteria is “inhibitory effects”.

Source of the values: patent US9308239B2, “Methods and compositions for treatment of retinoid-responsive conditions” (The Penn State Research Foundation, priority 2008, dated 2016).
